# Reference: patent publication US8012980B2, “Isoquinolinone derivatives” (AstraZeneca AB, priority 2008, dated 2011)
# Counter-ions that a name gives are not always drawn.
# Biological target: T1, human active recombinant p38 (p38α) (Homo sapiens, UniProt Q16539)
# T1 construct: 6His
# Experiment: p38 Alpha Enzyme Assay (AlphaScreen, biotinylated-ATF2 substrate)
# Format: biochemical
# Conditions: means of replicate determinations; pre-incubated for 4 hours at 37° C.; SD of assay between 0.2 and 0.3 log units
# Experimental: The ability of the compounds of formula (I) to inhibit p38 kinase may be determined using the following biological assay:
# Enzyme assays were performed in polypropylene 96 well plates. The following solutions were added to each well; 10 μL of compound dilutions in assay buffer (20 mM HEPES pH 7.4, containing 20 mM magnesium acetate, 0.005% (w/v) Tween-20, 10 mM DTT) containing 1% (v/v) DMSO or assay buffer containing 1% (v/v) DMSO alone, 70 μL of assay buffer containing 36 nM substrate (biotinylated-ATF2) and 10 μL of an appropriate dilution of human active recombinant p38-6H is tagged. Depending on batch of p38, an appropriate dilution was typically a 5 nM solution to give a final enzyme concentration of 0.5 nM. At this stage, background control wells also received 50 μL of AlphaScreen quench buffer (10 mM HEPES pH 7.4 containing 100 mM EDTA, 0.2% (w/v) bovine serum albumin). The plate was covered, pre-incubated for 4 hours at 37° C. and the enzyme reaction initiated by addition of 10 μL 1 mM ATP. After incubation for a further 45 minutes at 37° C., the reaction was stopped by addition of 50 μL quench reagent and 50 μL of the quenched reaction mixture transferred to an opaque, white 96-well plate. Detection reagent, 25 μL of 10 mM HEPES pH 7.4 containing 100 mM EDTA, 0.2% (w/v) bovine serum albumin, 0.3 nM anti phosphoATF2 antibody and 25 μg/mL of AlphaScreen protein A acceptor and donor beads' (PerkinElmer Inc.), was added to all wells in a darkened room, the plate sealed and left in the dark for at least 5 hours before AlphaScreen readings were taken using a Perkin Elmer EnVision reader. Total, uninhibited activity was determined from assays performed in each assay plate. The mean control in the absence of p38 activity was subtracted from each well. Data were expressed as percent inhibition of total activity using equation 1. Percent Inhibition=100*(1−Test/Control) Eq.1 Where . . . Test=p38 kinase activity in the presence of compound Control=p38 kinase activity in the absence of compound.
# pIC50 is defined as the logarithm of the reciprocal of the concentration of compound required for 50% reduction in total p38 kinase activity.
# The standard deviation of the p38 enzyme inhibition assay is between 0.2 and 0.3 log units.
# T1 sequence (Q16539 whole entry): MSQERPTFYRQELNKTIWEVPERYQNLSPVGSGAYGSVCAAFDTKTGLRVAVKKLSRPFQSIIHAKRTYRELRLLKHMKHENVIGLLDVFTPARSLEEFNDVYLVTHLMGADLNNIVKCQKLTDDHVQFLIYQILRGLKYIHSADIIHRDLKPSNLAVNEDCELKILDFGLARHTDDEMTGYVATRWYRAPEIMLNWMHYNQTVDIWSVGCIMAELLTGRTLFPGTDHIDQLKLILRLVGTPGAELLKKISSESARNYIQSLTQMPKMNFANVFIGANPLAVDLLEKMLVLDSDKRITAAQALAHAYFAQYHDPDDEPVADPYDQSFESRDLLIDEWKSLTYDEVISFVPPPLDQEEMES
row,p38α inhibition Mean pIC50,Compound
1,8.8,"Cc1c(F)cc(C(=O)NC2CC2)cc1-c1ccc2c(=O)n(CC(C)(C)CO)cc(CN3CCC[C@H](N)C3)c2c1 [Example 25, 3-[4-{[(3S)-3-Aminopiperidin-1-yl]methyl}-2-(3-hydroxy-2,2-dimethylpropyl)-1-oxo-1,2-dihydroisoquinolin-6-yl]-N-cyclopropyl-5-fluoro-4-methylbenzamide]"
2,9.5,"N-Cyclopropyl-3-fluoro-5-(2-[2-(hydroxymethyl)-2-methylbutyl]-4-{[(3S)-3-methylpiperazin-1-yl]methyl}-1-oxo-1,2-dihydroisoquinolin-6-yl)-4-methylbenzamide [Example 37]"
3,9.6,"Cc1c(F)cc(C(=O)NC2CC2)cc1-c1ccc2c(=O)n(CC(C)(C)CO)cc(CN3CCN[C@H](CO)C3)c2c1 [Example 17, N-Cyclopropyl-3-fluoro-5-(2-(3-hydroxy-2,2-dimethylpropyl)-4-(((3S)-3-(hydroxymethyl)piperazin-1-yl)methyl)-1-oxo-1,2-dihydroisoquinolin-6-yl)-4-methylbenzamide]"

# Same assay, conditions: means of replicate determinations; pre-incubated for 4 hours at 37° C.; SD of assay between 0.2 and 0.3 log units; read-out: p38α inhibition Mean pIC50 (converted)
row,IC50 [nM],Compound
1,0.794,"Cc1c(F)cc(C(=O)NC2CC2)cc1-c1ccc2c(=O)n(C[C@H](C)CO)cc(CN3CCNCC3)c2c1 [Example 18, N-Cyclopropyl-3-fluoro-5-{2-[(2S)-3-hydroxy-2-methylpropyl]-1-oxo-4-(piperazin-1-ylmethyl)-1,2-dihydroisoquinolin-6-yl}-4-methylbenzamide]"
2,0.126,"Cc1c(F)cc(C(=O)NC2CC2)cc1-c1ccc2c(=O)n(CC(C)(C)CO)cc(C(C)N3CCN[C@@H](CO)C3)c2c1 (stereo partly drawn) [Example 45, N-Cyclopropyl-3-fluoro-5-[2-(3-hydroxy-2,2-dimethylpropyl)-4-{1-[(3R)-3-(hydroxymethyl)piperazin-1-yl]ethyl}-1-oxo-1,2-dihydroisoquinolin-6-yl]-4-methylbenzamide]"
3,0.251,"Cc1c(F)cc(C(=O)NC2CC2)cc1-c1ccc2c(=O)n(CC(C)(C)CO)cc(S[C@H]3CCN[C@H](CO)C3)c2c1 [Example 67, N-Cyclopropyl-3-fluoro-5-[2-(3-hydroxy-2,2-dimethylpropyl)-4-{[(2S,4S)-2-(hydroxymethyl)piperidin-4-yl]sulfanyl}-1-oxo-1,2-dihydroisoquinolin-6-yl]-4-methylbenzamide]"
4,0.631,"Cc1c(F)cc(C(=O)NC2CC2)cc1-c1ccc2c(=O)n(CC(C)(C)CO)cc(CN3CCN(C)CC3)c2c1 [Example 24, N-Cyclopropyl-3-fluoro-5-{2-(3-hydroxy-2,2-dimethylpropyl)-4-[(4-methylpiperazin-1-yl)methyl]-1-oxo-1,2-dihydroisoquinolin-6-yl}-4-methylbenzamide]"
5,0.501,"Cc1c(F)cc(C(=O)NC2CC2)cc1-c1ccc2c(=O)n(CC3(CO)CC3)cc(CN3CCN[C@H](CO)C3)c2c1 [Example 15, N-Cyclopropyl-3-fluoro-5-(2-((1-(hydroxymethyl)cyclopropyl)methyl)-4-(((3S)-3-(hydroxymethyl)piperazin-1-yl)methyl)-1-oxo-1,2-dihydroisoquinolin-6-yl)-4-methylbenzamide]"
6,0.501,"Cc1c(F)cc(C(=O)NC2CC2)cc1-c1ccc2c(=O)n(CC(C)(C)CO)cc(S(=O)(=O)N3CCN[C@@H](CO)C3)c2c1 [Example 49, N-Cyclopropyl-3-fluoro-5-[2-(3-hydroxy-2,2-dimethylpropyl)-4-{[(3R)-3-(hydroxymethyl)piperazin-1-yl]sulfonyl}-1-oxo-1,2-dihydroisoquinolin-6-yl]-4-methylbenzamide]"
7,0.251,"Cc1c(F)cc(C(=O)NC2CC2)cc1-c1ccc2c(=O)n(CC(C)(C)CO)cc(S(=O)(=O)N3CC[C@@H](N)C3)c2c1 [Example 54, 3-[4-{[(3R)-3-Aminopyrrolidin-1-yl]sulfonyl}-2-(3-hydroxy-2,2-dimethylpropyl)-1-oxo-1,2-dihydroisoquinolin-6-yl]-N-cyclopropyl-5-fluoro-4-methylbenzamide]"
8,0.2,"Cc1c(F)cc(C(=O)NC2CC2)cc1-c1ccc2c(=O)n(CC(C)(C)CO)cc(C(C)N3CCNCC3)c2c1 (racemic) [Example 38, N-Cyclopropyl-3-fluoro-5-[2-(3-hydroxy-2,2-dimethylpropyl)-1-oxo-4-(1-piperazin-1-ylethyl)-1,2-dihydroisoquinolin-6-yl]-4-methylbenzamide racemate]"
9,0.251,"Cc1c(F)cc(C(=O)NC2CC2)cc1-c1ccc2c(=O)n(CCCCO)cc(CN3CCCN(C)CC3)c2c1 [Example 8, N-Cyclopropyl-3-fluoro-5-{2-(4-hydroxybutyl)-4-[(4-methyl-1,4-diazepan-1-yl)methyl]-1-oxo-1,2-dihydroisoquinolin-6-yl}-4-methylbenzamide]"
10,0.251,"Cc1c(F)cc(C(=O)NC2CC2)cc1-c1ccc2c(=O)n(CC(C)(C)CO)cc(CN3CCCN(C)CC3)c2c1 [Example 2, N-Cyclopropyl-3-fluoro-5-{2-(3-hydroxy-2,2-dimethylpropyl)-4-[(4-methyl-1,4-diazepan-1-yl)methyl]-1-oxo-1,2-dihydroisoquinolin-6-yl}-4-methylbenzamide]"
11,0.794,"Cc1c(F)cc(C(=O)NC2CC2)cc1-c1ccc2c(=O)n(CC(C)(C)CO)cc(CN3CCC(C)(N)CC3)c2c1 [Example 31, 3-{4-[(4-Amino-4-methylpiperidin-1-yl)methyl]-2-(3-hydroxy-2,2-dimethylpropyl)-1-oxo-1,2-dihydroisoquinolin-6-yl}-N-cyclopropyl-5-fluoro-4-methylbenzamide]"
12,0.631,"Cc1c(F)cc(C(=O)NC2CC2)cc1-c1ccc2c(=O)n(CC(C)(C)CO)cc(C(C)N3CCNCC3)c2c1 (single isomer, unassigned) [Example 39, N-Cyclopropyl-3-fluoro-5-[2-(3-hydroxy-2,2-dimethylpropyl)-1-oxo-4-(1-piperazin-1-ylethyl)-1,2-dihydroisoquinolin-6-yl]-4-methylbenzamide]"
13,1,"Cc1c(F)cc(C(=O)NC2CC2)cc1-c1ccc2c(=O)n(CC3(CO)CC3)cc(CN3CCN[C@@H](C)C3)c2c1 [Example 34, N-Cyclopropyl-3-fluoro-5-(2-{[1-(hydroxymethyl)cyclopropyl]methyl}-4-{[(3S)-3-methylpiperazin-1-yl]methyl}-1-oxo-1,2-dihydroisoquinolin-6-yl)-4-methylbenzamide]"
14,0.158,"Cc1c(F)cc(C(=O)NC2CC2)cc1-c1ccc2c(=O)n(CC(C)(C)CO)cc(S(=O)(=O)N3CCCNCC3)c2c1 [Example 46, N-Cyclopropyl-3-[4-(1,4-diazepan-1-ylsulfonyl)-2-(3-hydroxy-2,2-dimethylpropyl)-1-oxo-1,2-dihydroisoquinolin-6-yl]-5-fluoro-4-methylbenzamide]"
15,0.158,"Cc1c(F)cc(C(=O)NC2CC2)cc1-c1ccc2c(=O)n(CC3(CO)CC3)cc(CN3CCNC[C@H]3C)c2c1 [Example 33, N-Cyclopropyl-3-fluoro-5-(2-{[1-(hydroxymethyl)cyclopropyl]methyl}-4-{[(2R)-2-methylpiperazin-1-yl]methyl}-1-oxo-1,2-dihydroisoquinolin-6-yl)-4-methylbenzamide]"
16,0.398,"Cc1c(F)cc(C(=O)NC2CC2)cc1-c1ccc2c(=O)n(CC3CC3)cc(S(=O)(=O)N3CCN(C)CC3)c2c1 [Example 48, N-Cyclopropyl-3-{2-(cyclopropylmethyl)-4-[(4-methylpiperazin-1-yl)sulfonyl]-1-oxo-1,2-dihydroisoquinolin-6-yl}-5-fluoro-4-methylbenzamide]"
17,0.794,"Cc1c(F)cc(C(=O)NC2CC2)cc1-c1ccc2c(=O)n(CC(C)(C)CO)cc(CN3CCN[C@@H](C)C3)c2c1 [Example 29, N-Cyclopropyl-3-fluoro-5-[2-(3-hydroxy-2,2-dimethylpropyl)-4-{[(3S)-3-methylpiperazin-1-yl]methyl}-1-oxo-1,2-dihydroisoquinolin-6-yl]-4-methylbenzamide hydrochloride]"
18,1.58,"Cc1c(F)cc(C(=O)NC2CC2)cc1-c1ccc2c(=O)n(CC[C@H](C)O)cc(CN3CCNCC3)c2c1 [Example 9, N-Cyclopropyl-3-fluoro-5-{2-[(3S)-3-hydroxybutyl]-1-oxo-4-(piperazin-1-ylmethyl)-1,2-dihydroisoquinolin-6-yl}-4-methylbenzamide]"
19,0.1,"Cc1c(F)cc(C(=O)NC2CC2)cc1-c1ccc2c(=O)n(CC3CC3)cc(S(=O)(=O)N3CCCNCC3)c2c1 [Example 51, N-cyclopropyl-3-[2-(cyclopropylmethyl)-4-(1,4-diazepan-1-ylsulfonyl)-1-oxo-1,2-dihydroisoquinolin-6-yl]-5-fluoro-4-methylbenzamide]"
